Results as given in patent publication US3939043A, “Antibiotics designated XK-88 series and process for production thereof” (Abbott Laboratories, priority 1973, dated 1976).
Values after ≈ are worked out from the molar mass of the structure shown. Where two headings read alike, the source gives them in different places.

What was measured:
[1] = test system: Staphylococcus aureus KY 8953; assay: In vitro antibacterial spectrum by agar dilution method (pH 8.0); type: cell-based
Escherichia coli KY 8327 = assay: as above; type: cell-based; details: KY8327, Escherichia coli KY 8327 (resistant to Kanamycin, Gentamicin, Nebramycin and Tobramycin), read-out: Minimum Inhibitory Concentration (M.I.C.)
[2] = test system: Pseudomonas aeruginosa BMH No. 1; assay: as above; type: cell-based
[3] = test system: Bacillus cereus ATCC 9634; assay: as above; type: cell-based; details: ATCC9634, read-out: Minimum Inhibitory Concentration (M.I.C.)
[4] = test system: Gram-positive and Gram-negative bacteria; assay: Antibacterial activity (summary of Table 4); type: cell-based; details: versus the said known antibiotics; from Table 4
From the text: (§1) The in vitro antibacterial spectra of the XK-88 antibiotics by agar dilution method (pH 8.0) is illustrated in the following Table 4: […]

[5] = test system: Klebsiella pneumoniae ATCC 10031; assay: In vitro antibacterial spectrum by agar dilution method (pH 8.0); type: cell-based; details: ATCC10031, read-out: Minimum Inhibitory Concentration (M.I.C.)
[6] = test system: Bacillus subtilis No. 10703; assay: as above; type: cell-based
Escherichia coli KY 8314 = assay: as above; type: cell-based; details: KY8314, Escherichia coli KY 8314 (resistant to Streptomycin), read-out: Minimum Inhibitory Concentration (M.I.C.)
From the text: (§2) The in vitro antibacterial spectra of the XK-88 antibiotics by agar dilution method (pH 8.0) is illustrated in the following Table 4:
(§3) (Minimum Inhibitory Concentration (μg/ml)
(§4) by agar dilution method (pH 8.0)

Escherichia coli KY 8310 = assay: as above; type: cell-based; details: KY8310, Escherichia coli KY 8310 (resistant to Chloramphenicol, Streptomycin, Kanamycin, Gentamicin, Paromomycin, Nebramycin, Tobramycin, Spectinomycin and Tetracycline), read-out: Minimum Inhibitory Concentration (M.I.C.)
From the text: as §2, §3, §4

Escherichia coli KY 8331 = assay: as above; type: cell-based; details: KY8331, Escherichia coli KY 8331 (resistant to Kanamycin, Ribostamycin, Neomycin, Paromomycin, Lividomycin and Nebramycin), read-out: Minimum Inhibitory Concentration (M.I.C.)
From the text: as §2, §3, §4

[7] = test system: Shigella sonnei ATCC 9290; assay: as above; type: cell-based; details: ATCC9290, read-out: Minimum Inhibitory Concentration (M.I.C.)
From the text: as §2, §3, §4

Escherichia coli KY 8334 = assay: as above; type: cell-based; details: KY8334, Escherichia coli KY 8334 (resistant to Kanamycin and Tobramycin), read-out: Minimum Inhibitory Concentration (M.I.C.)
Escherichia coli ATCC 26 = assay: as above; type: cell-based
[8] = test system: Bacillus cereus var. mycoides ATCC 9463; assay: microbe, parasite or virus in culture; type: cell-based; details: ATCC9463, pH 8, read-out: Minimum Inhibitory Concentration (M.I.C.)
Escherichia coli KY 8348 = assay: In vitro antibacterial spectrum by agar dilution method (pH 8.0); type: cell-based; details: KY8348, Escherichia coli KY 8348 (resistant to Streptomycin and Gentamicin), read-out: Minimum Inhibitory Concentration (M.I.C.)
[9] = test system: Staphylococcus aureus KY 8942; assay: as above; type: cell-based
[10] = test system: Staphylococcus aureus KY 8957; assay: as above; type: cell-based; details: KY8957, Staphylococcus aureus KY 8957 (resistant to Chloramphenicol, Streptomycin, Kanamycin, Paromomycin, Nebramycin, Tobramycin and Tetracycline), read-out: Minimum Inhibitory Concentration (M.I.C.)
[11] = test system: Staphylococcus aureus KY 8950; assay: as above; type: cell-based; details: KY8950, Staphylococcus aureus KY 8950 (resistant to Streptomycin, Tetracycline, Penicillin and sulfonamide), read-out: Minimum Inhibitory Concentration (M.I.C.)
[12] = test system: Salmonella typhosa ATCC 9992; assay: as above; type: cell-based; details: Salmonella enterica, pH 8, read-out: Minimum Inhibitory Concentration (M.I.C.)
[13] = test system: Streptococcus faecalis ATCC 10541; assay: as above; type: cell-based; details: Enterococcus faecalis
[14] = test system: Staphylococcus aureus KY 8956; assay: as above; type: cell-based; details: KY8956, Staphylococcus aureus KY 8956 (resistant to Streptomycin, Paromomycin, Tetracycline, Kanamycin, Nebramycin, Tobramycin and Erythromycin), read-out: Minimum Inhibitory Concentration (M.I.C.)
Staphylococcus aureus = assay: Antibacterial activity against resistant bacteria (summary of Table 4); type: cell-based; details: Staphylococcus aureus normally resistant to various known antibiotics
From the text: as §1

Escherichia coli = assay: as above; type: cell-based; details: Escherichia coli normally resistant to various known antibiotics
From the text: as §1

[15] = test system: Proteus vulgaris ATCC 6897; assay: In vitro antibacterial spectrum by agar dilution method (pH 8.0); type: cell-based
[16] = test system: Staphylococcus aureus ATCC 6538P; assay: as above; type: cell-based; details: ATCC6538P, read-out: Minimum Inhibitory Concentration (M.I.C.)
Solubility = type: physicochemical; details: for solubility in organic solvents: acetone, ethyl acetate, ethyl ether, chloroform, etc.
[17] = Staphylococcus aureus, KY8953, pH 8, read-out: Minimum Inhibitory Concentration (M.I.C.)
[18] = BMHNO.1, Pseudomonas aeruginosa BMH No. 1, agar dilution, pH 8.0, read-out: Minimum Inhibitory Concentration (M.I.C.)
[19] = Bacillus subtilis No. 10703, agar dilution, pH 8.0, read-out: Minimum Inhibitory Concentration (M.I.C.)
[20] = ATCC26, Escherichia coli ATCC 26, agar dilution, pH 8.0, read-out: Minimum Inhibitory Concentration (M.I.C.)
[21] = KY8942, Staphylococcus aureus KY 8942 (resistant to Kanamycin, Paromomycin, Streptomycin, Gentamicin and Nebramycin), agar dilution, pH 8.0, read-out: Minimum Inhibitory Concentration (M.I.C.)
[22] = ATCC10541, pH 8, read-out: Minimum Inhibitory Concentration (M.I.C.)
[23] = ATCC6897, Proteus vulgaris ATCC 6897, agar dilution, pH 8.0, read-out: Minimum Inhibitory Concentration (M.I.C.)
[24] = KY8953, Staphylococcus aureus KY 8953 (resistant to Streptomycin, Kanamycin, Paromycin, Neomycin, Tetracycline, Erythromycin), agar dilution, pH 8.0, read-out: Minimum Inhibitory Concentration (M.I.C.)

SMILES	MIC (Escherichia coli KY 8327) [µg/mL]	MIC [3] [µg/mL]	cross resistance with known antibiotics [4]	MIC [5] [µg/mL]	MIC (Escherichia coli KY 8314) [µg/mL]	MIC (Escherichia coli KY 8310) [µg/mL]	MIC (Escherichia coli KY 8331) [µg/mL]	MIC [7] [µg/mL]	MIC (Escherichia coli KY 8334) [µg/mL]	MIC [8] [µg/mL]	MIC (Escherichia coli KY 8348) [µg/mL]	MIC [10] [µg/mL]	MIC [11] [µg/mL]	MIC [12] [µg/mL]	MIC [14] [µg/mL]	antibacterial activity (Staphylococcus aureus)	antibacterial activity (Escherichia coli)	MIC [16] [µg/mL]	solubility in organic solvents (Solubility)	solubility in methanol and ethanol (Solubility)	also measured
NCC1OC(OC2C(N)CC(N)C(OC3OCC(O)C(O)C3N)C2O)C(N)C(O)C1O (stereo not shown) [XK-88-3]	0.05 (≈ 0.11 µM)	2.7 (≈ 5.95 µM)	complete cross resistance does not always occur	0.05 (≈ 0.11 µM)	0.35 (≈ 0.772 µM)	83.3 (≈ 184 µM)	41.7 (≈ 92 µM)	0.35 (≈ 0.772 µM)	5.3 (≈ 11.7 µM)	2.7 (≈ 5.95 µM)	0.09 (≈ 0.198 µM)	5.3 (≈ 11.7 µM)	0.35 (≈ 0.772 µM)	0.18 (≈ 0.397 µM)	5.3 (≈ 11.7 µM)	strong antibacterial activity	strong antibacterial activity	0.18 (≈ 0.397 µM)	–	–	MIC [1, 17]: > 83.3 µg/mL; MIC [2, 18]: > 416 µg/mL; MIC [6, 19]: 2.7 µg/mL (≈ 5.95 µM); MIC (Escherichia coli ATCC 26; [20]): 0.18 µg/mL (≈ 0.397 µM); MIC [9, 21]: 1.4 µg/mL (≈ 3.09 µM); MIC [13, 22]: > 83.3 µg/mL; MIC [15, 23]: 1.4 µg/mL (≈ 3.09 µM)
NC1CC(N)C(OC2OC(CO)C(O)C(O)C2N)C(O)C1OC1OCC(O)C(O)C1N (stereo not shown) [sulfate of XK-88-1]	–	–	–	–	–	–	–	–	–	–	–	–	–	–	–	–	–	–	insoluble	poorly soluble	solubility in water (Solubility): very soluble
NCC1CC(O)C(N)C(OC2C(N)CC(N)C(O)C2O)O1 (stereo not shown) [sulfate of XK-88-2]	–	–	–	–	–	–	–	–	–	–	–	–	–	–	–	–	–	–	insoluble	poorly soluble	solubility in water (Solubility): very soluble
COC1COC(OC2C(N)CC(N)C(OC3OC(CN)CC(O)C3N)C2O)C(N)C1N (stereo not shown) [sulfate of XK-88-5]	–	–	–	–	–	–	–	–	–	–	–	–	–	–	–	–	–	–	insoluble	poorly soluble	solubility in water (Solubility): very soluble
NC1CC(N)C(OC2OC(CO)C(O)C(O)C2N)C(O)C1OC1OCC(O)C(O)C1N (stereo not shown) [XK-88-1]	13.1 (≈ 28.8 µM)	6.6 (≈ 14.5 µM)	complete cross resistance does not always occur	13.1 (≈ 28.8 µM)	52.1 (≈ 115 µM)	> 416	> 416	52.1 (≈ 115 µM)	1.65 (≈ 3.63 µM)	3.3 (≈ 7.26 µM)	13.5 (≈ 29.7 µM)	104 (≈ 229 µM)	13.1 (≈ 28.8 µM)	26.1 (≈ 57.4 µM)	208 (≈ 459 µM)	strong antibacterial activity	strong antibacterial activity	6.6 (≈ 14.5 µM)	–	–	MIC [1, 17]: > 416 µg/mL; MIC ([2]; Pseudomonas aeruginosa, BMHNO.1, pH 8, read-out: Minimum Inhibitory Concentration (M.I.C.)): > 416 µg/mL; MIC ([6]; Bacillus subtilis, NO.10703, pH 8, read-out: Minimum Inhibitory Concentration (M.I.C.)): 52.1 µg/mL (≈ 115 µM); MIC (Escherichia coli ATCC 26; Escherichia coli, ATCC26, pH 8, read-out: Minimum Inhibitory Concentration (M.I.C.)): 26.1 µg/mL (≈ 57.4 µM); MIC ([9]; Staphylococcus aureus, KY8942, pH 8, read-out: Minimum Inhibitory Concentration (M.I.C.)): 52.1 µg/mL (≈ 115 µM); MIC [13, 22]: > 416 µg/mL; MIC ([15]; Proteus vulgaris, ATCC6897, pH 8, read-out: Minimum Inhibitory Concentration (M.I.C.)): 416 µg/mL (≈ 916 µM)
COC1COC(OC2C(N)CC(N)C(OC3OC(CN)CC(O)C3N)C2O)C(N)C1N (stereo not shown) [XK-88-5]	0.04 (≈ 0.0888 µM)	1.31 (≈ 2.91 µM)	complete cross resistance does not always occur	< 0.05	0.33 (≈ 0.732 µM)	> 41.6	20.8 (≈ 46.2 µM)	0.14 (≈ 0.311 µM)	0.66 (≈ 1.46 µM)	0.66 (≈ 1.46 µM)	2.7 (≈ 5.99 µM)	0.04 (≈ 0.0888 µM)	0.17 (≈ 0.377 µM)	0.09 (≈ 0.2 µM)	< 0.02	strong antibacterial activity	strong antibacterial activity	0.07 (≈ 0.155 µM)	–	–	MIC [1, 24]: 0.17 µg/mL (≈ 0.377 µM); MIC [2, 18]: 8.3 µg/mL (≈ 18.4 µM); MIC [6, 19]: 0.04 µg/mL (≈ 0.0888 µM); MIC (Escherichia coli ATCC 26; [20]): 0.08 µg/mL (≈ 0.178 µM); MIC [9, 21]: 0.66 µg/mL (≈ 1.46 µM); MIC ([13]; ATCC10541, Streptococcus faecalis ATCC 10541, agar dilution, pH 8.0, read-out: Minimum Inhibitory Concentration (M.I.C.)): 10.5 µg/mL (≈ 23.3 µM); MIC [15, 23]: 0.53 µg/mL (≈ 1.18 µM)
NCC1OC(OC2C(N)CC(N)C(OC3OCC(O)C(O)C3N)C2O)C(N)C(O)C1O (stereo not shown) [sulfate of XK-88-3]	–	–	–	–	–	–	–	–	–	–	–	–	–	–	–	–	–	–	insoluble	poorly soluble	solubility in water (Solubility): very soluble
NCC1CC(O)C(N)C(OC2C(N)CC(N)C(O)C2O)O1 (stereo not shown) [XK-88-2]	0.18 (≈ 0.588 µM)	2.7 (≈ 8.81 µM)	complete cross resistance does not always occur	0.18 (≈ 0.588 µM)	1.4 (≈ 4.57 µM)	> 83.3	41.7 (≈ 136 µM)	1.4 (≈ 4.57 µM)	5.3 (≈ 17.3 µM)	0.7 (≈ 2.28 µM)	0.18 (≈ 0.588 µM)	0.09 (≈ 0.294 µM)	0.35 (≈ 1.14 µM)	0.7 (≈ 2.28 µM)	0.09 (≈ 0.294 µM)	strong antibacterial activity	strong antibacterial activity	0.18 (≈ 0.588 µM)	–	–	MIC [1, 24]: 0.35 µg/mL (≈ 1.14 µM); MIC [2, 18]: 10.5 µg/mL (≈ 34.3 µM); MIC [6, 19]: 0.35 µg/mL (≈ 1.14 µM); MIC (Escherichia coli ATCC 26; [20]): 0.35 µg/mL (≈ 1.14 µM); MIC [9, 21]: 1.4 µg/mL (≈ 4.57 µM); MIC [13, 22]: > 83.3 µg/mL; MIC [15, 23]: 1.4 µg/mL (≈ 4.57 µM)
